Test results: PubChem BioAssay AID256 (DTP/NCI, 2004)
Values joined by “and” are separate entries in the source; they are usually repeats but may differ in a detail not shown here. Equal entries are not always repeated. Inconclusive results and toxic doses are left out. The calls were made as follows: active = survival T/C of 150% or more; inactive = T/C below 125% in these data.

Tested on: CD2F1 mice, L1210 leukemia ip, survival T/C
Test: NCI In Vivo Anticancer Drug Screen. Data for tumor model L1210 Leukemia (intraperitoneal) in CD2F1 (CDF1) mice
Conditions: higher = longer survival
Experimental: The antitumor activity of compounds was measured in mice bearing transplantable tumors. Survival or tumor size were measured and the results are expressed as the measurement made in the treated group (T) divided by the measurement made in the vehicle treated control group (C). The tumor model used in this assay is L1210 Leukemia (intraperitoneal) in CD2F1 (CDF1) mice

[1] = endpoint: mean survival time, dose: 100.0 mg/kg/injection, schedule: Q01DX009 (ip), vehicle: saline with Tween-80
[2] = endpoint: mean survival time, dose: 200.0 mg/kg/injection, schedule: Q01DX009 (ip), vehicle: saline with Tween-80
[3] = endpoint: mean survival time, dose: 100.0 mg/kg/injection, schedule: Q04DX002 (ip), vehicle: saline with Tween-80
[4] = endpoint: mean survival time, dose: 25.0 mg/kg/injection, schedule: Q04DX003 (ip), vehicle: saline
[5] = endpoint: mean survival time, dose: 50.0 mg/kg/injection, schedule: Q04DX003 (ip), vehicle: saline
[6] = endpoint: mean survival time, dose: 100.0 mg/kg/injection, schedule: Q04DX003 (ip), vehicle: saline
[7] = endpoint: mean survival time, dose: 75.0 mg/kg/injection, schedule: Q01DX001 (ip), vehicle: saline
[8] = endpoint: mean survival time, dose: 100.0 mg/kg/injection, schedule: Q04DX003 (ip), vehicle: saline with Tween-80
[9] = endpoint: mean survival time, dose: 200.0 mg/kg/injection, schedule: Q04DX003 (ip), vehicle: saline with Tween-80
[10] = endpoint: mean survival time, dose: 400.0 mg/kg/injection, schedule: Q04DX003 (ip), vehicle: saline with Tween-80
[11] = endpoint: mean survival time, dose: 200.0 mg/kg/injection, schedule: Q04DX003 (ip), vehicle: saline
[12] = endpoint: mean survival time, dose: 400.0 mg/kg/injection, schedule: Q04DX003 (ip), vehicle: saline

Measured: T/C

COc1cc2c(cc1OC)[C@@H]1C(=O)c3ccc4c(c3O[C@@H]1CO2)C[C@H](C(C)C)O4
inactive: endpoint: median survival time, dose: 6.25 mg/kg/injection, schedule: Q01DX005 (ip), vehicle: Klucel (hydroxypropylcellulose) (HPC) 107 % of control | endpoint: median survival time, dose: 12.5 mg/kg/injection, schedule: Q01DX005 (ip), vehicle: Klucel (hydroxypropylcellulose) (HPC) 115 % of control | endpoint: median survival time, dose: 18.0 mg/kg/injection, schedule: Q01DX005 (ip), vehicle: Klucel (hydroxypropylcellulose) (HPC) 113 % of control | endpoint: median survival time, dose: 25.0 mg/kg/injection, schedule: Q01DX005 (ip), vehicle: Klucel (hydroxypropylcellulose) (HPC) 115 % of control | endpoint: median survival time, dose: 30.0 mg/kg/injection, schedule: Q01DX005 (ip), vehicle: Klucel (hydroxypropylcellulose) (HPC) 118 % of control | endpoint: median survival time, dose: 100.0 mg/kg/injection, schedule: Q01DX005 (ip), vehicle: Klucel (hydroxypropylcellulose) (HPC) 100 % of control

COC(=O)c1[nH]cnc1/N=N/N(C)C.[Cl][Cu][Cl]
inactive: endpoint: mean survival time, dose: 2.5 mg/kg/injection, schedule: Q01DX001 (ip), vehicle: saline 98 % of control | endpoint: mean survival time, dose: 5.0 mg/kg/injection, schedule: Q01DX001 (ip), vehicle: saline 92 % of control | endpoint: mean survival time, dose: 10.0 mg/kg/injection, schedule: Q01DX001 (ip), vehicle: saline 88 % of control and 96 % of control | endpoint: mean survival time, dose: 20.0 mg/kg/injection, schedule: Q01DX001 (ip), vehicle: saline 111 % of control

COc1cccc(C(=O)O)c1OC
inactive: [1] 109 % of control | [2] 94 % of control | endpoint: mean survival time, dose: 400.0 mg/kg/injection, schedule: Q01DX009 (ip), vehicle: saline with Tween-80 102 % of control

O=c1[nH]cnc2c1ccn2C1OC(CO)C(O)C1O (configuration not stated)
inactive: endpoint: mean survival time, dose: 6.25 mg/kg/injection, schedule: Q01DX009 (ip), vehicle: saline 111 % of control | endpoint: mean survival time, dose: 6.25 mg/kg/injection, schedule: Q04DX003 (ip), vehicle: saline sonified 106 % of control | endpoint: mean survival time, dose: 12.5 mg/kg/injection, schedule: Q01DX009 (ip), vehicle: saline 90 % of control | endpoint: mean survival time, dose: 12.5 mg/kg/injection, schedule: Q04DX003 (ip), vehicle: saline sonified 109 % of control | endpoint: mean survival time, dose: 16.7 mg/kg/injection, schedule: Q04DX003 (ip), vehicle: saline sonified 121 % of control | endpoint: mean survival time, dose: 25.0 mg/kg/injection, schedule: Q04DX003 (ip), vehicle: saline sonified 113 % of control | endpoint: mean survival time, dose: 37.5 mg/kg/injection, schedule: Q04DX003 (ip), vehicle: saline sonified 119 % of control

C=C1N(c2ccccc2)C(=O)OC1(C)C
inactive: [3] 112 % of control | endpoint: mean survival time, dose: 200.0 mg/kg/injection, schedule: Q04DX002 (ip), vehicle: saline with Tween-80 112 % of control | endpoint: mean survival time, dose: 400.0 mg/kg/injection, schedule: Q04DX002 (ip), vehicle: saline with Tween-80 122 % of control

CCCCN1C(=O)C(=O)N(c2ccc(NC(C)=O)cc2)C1=O
inactive: endpoint: mean survival time, dose: 50.0 mg/kg/injection, schedule: Q01DX009 (ip), vehicle: saline with Tween-80 93 % of control | [1] 89 % of control | [2] 89 % of control

NNC(=O)COc1ccccc1
inactive: [4] 101 % of control | [5] 101 % of control | [6] 103 % of control

CCC(C)N(CCCOC(=O)c1ccc(N)cc1)C(C)CC (configuration not stated)
inactive: endpoint: mean survival time, dose: 12.5 mg/kg/injection, schedule: Q04DX003 (ip), vehicle: saline 103 % of control | [4] 107 % of control | [5] 103 % of control

CCOc1cc2ccc3c4cc(OC)c(OC)cc4c[n+](C)c3c2cc1OCC
inactive: endpoint: mean survival time, dose: 25.0 mg/kg/injection, schedule: Q04DX002 (ip), vehicle: saline with Tween-80 107 % of control | endpoint: mean survival time, dose: 50.0 mg/kg/injection, schedule: Q04DX002 (ip), vehicle: saline with Tween-80 111 % of control | [3] 103 % of control

O=C(Nc1ccccc1[N+](=O)[O-])c1ccc(C(=O)Nc2ccccc2[N+](=O)[O-])cc1
inactive: [7] 87 % of control | endpoint: mean survival time, dose: 150.0 mg/kg/injection, schedule: Q01DX001 (ip), vehicle: saline 96 % of control | endpoint: mean survival time, dose: 300.0 mg/kg/injection, schedule: Q01DX001 (ip), vehicle: saline 91 % of control

CC(=O)/C(N=O)=C(/C)O
inactive: endpoint: mean survival time, dose: 200.0 mg/kg/injection, schedule: Q01DX001 (ip), vehicle: saline with Tween-80 88 % of control | endpoint: mean survival time, dose: 400.0 mg/kg/injection, schedule: Q01DX001 (ip), vehicle: saline with Tween-80 92 % of control

Cc1ccccc1NC(=O)C1CCC(C)(C(=O)O)C1(C)C (configuration not stated)
inactive: [8] 98 % of control | [9] 93 % of control | [10] 96 % of control

COc1ccc(C(=O)N/N=C(\C)[C@]2(O)Cc3c(O)c4c(c(O)c3[C@@H](OC3CC(N)C(O)C(C)O3)C2)C(=O)c2c(OC)cccc2C4=O)cc1 (some centres not stated)
inactive: endpoint: mean survival time, dose: 0.5 mg/kg/injection, schedule: Q01DX009 (ip), vehicle: water 103 % of control | endpoint: mean survival time, dose: 1.0 mg/kg/injection, schedule: Q01DX009 (ip), vehicle: water 112 % of control | endpoint: mean survival time, dose: 2.0 mg/kg/injection, schedule: Q01DX009 (ip), vehicle: water 118 % of control | endpoint: mean survival time, dose: 4.0 mg/kg/injection, schedule: Q01DX009 (ip), vehicle: water 121 % of control

CCOC(=O)Nc1cc(NCC(O)CN(C)c2ccccc2)c([N+](=O)[O-])c(NC(=O)OCC)n1 (configuration not stated)
inactive: endpoint: mean survival time, dose: 100.0 mg/kg/injection, schedule: Q01DX001 (ip), vehicle: carboxymethylcellulose (CMC) 96 % of control | endpoint: mean survival time, dose: 200.0 mg/kg/injection, schedule: Q01DX001 (ip), vehicle: carboxymethylcellulose (CMC) 91 % of control | endpoint: mean survival time, dose: 400.0 mg/kg/injection, schedule: Q01DX001 (ip), vehicle: carboxymethylcellulose (CMC) 87 % of control

O=C(O)c1ccc(CCCBr)cc1
inactive: endpoint: mean survival time, dose: 100.0 mg/kg/injection, schedule: Q04DX003 (ip), vehicle: other 107 % of control | endpoint: mean survival time, dose: 200.0 mg/kg/injection, schedule: Q04DX003 (ip), vehicle: other 106 % of control | endpoint: mean survival time, dose: 400.0 mg/kg/injection, schedule: Q04DX003 (ip), vehicle: other 101 % of control

CCCCCCC(C)c1cc(C)c(O)c(CN(C)C)c1 (configuration not stated)
inactive: [6] 91 % of control | [11] 95 % of control

Nc1nc(N)c2c(n1)NCN(OCc1c(Cl)cccc1Cl)C2
inactive: endpoint: mean survival time, dose: 0.75 mg/kg/injection, schedule: Q01DX009 (ip), vehicle: water 96 % of control | endpoint: mean survival time, dose: 1.5 mg/kg/injection, schedule: Q01DX009 (ip), vehicle: water 100 % of control | endpoint: mean survival time, dose: 3.0 mg/kg/injection, schedule: Q01DX009 (ip), vehicle: water 102 % of control | endpoint: mean survival time, dose: 6.0 mg/kg/injection, schedule: Q01DX009 (ip), vehicle: water 102 % of control | endpoint: mean survival time, dose: 12.0 mg/kg/injection, schedule: Q01DX009 (ip), vehicle: water 104 % of control | endpoint: mean survival time, dose: 24.0 mg/kg/injection, schedule: Q01DX009 (ip), vehicle: water 100 % of control

c1ccc(CC2=NCCO2)cc1
inactive: [6] 100 % of control | [11] 95 % of control | [12] 98 % of control

NC(=O)c1cccnc1
inactive: endpoint: mean survival time, dose: 175.0 mg/kg/injection, schedule: Q04HX040 (ip), vehicle: water 109 % of control | endpoint: mean survival time, dose: 350.0 mg/kg/injection, schedule: Q04HX040 (ip), vehicle: water 103 % of control

O=C(O)C(O)C(O)C(=O)O (configuration not stated)
inactive: endpoint: mean survival time, dose: 100.0 mg/kg/injection, schedule: Q01DX001 (ip), vehicle: saline 103 % of control | [1] 102 % of control | [8] 97 % of control | [6] 110 % of control | endpoint: mean survival time, dose: 200.0 mg/kg/injection, schedule: Q01DX001 (ip), vehicle: saline 106 % of control | [2] 102 % of control | [9] 92 % of control | [11] 98 % of control | endpoint: mean survival time, dose: 400.0 mg/kg/injection, schedule: Q01DX001 (ip), vehicle: saline 110 % of control | [10] 97 % of control | [12] 101 % of control

O=C(O)C(Cl)C(Cl)c1ccccc1 (configuration not stated)
inactive: endpoint: mean survival time, dose: 100.0 mg/kg/injection, schedule: Q04DX002 (ip), vehicle: saline 90 % of control | endpoint: mean survival time, dose: 200.0 mg/kg/injection, schedule: Q04DX002 (ip), vehicle: saline 94 % of control | endpoint: mean survival time, dose: 400.0 mg/kg/injection, schedule: Q04DX002 (ip), vehicle: saline 94 % of control

CC(=O)OC1CC2CC(C1C)C2(C)C (configuration not stated)
inactive: [1] 91 % of control | [8] 90 % of control | [9] 88 % of control | [10] 88 % of control

CC(C)(C)NC[Si](C)(C)C
inactive: endpoint: mean survival time, dose: 25.0 mg/kg/injection, schedule: Q01DX009 (ip), vehicle: saline 94 % of control | endpoint: mean survival time, dose: 50.0 mg/kg/injection, schedule: Q01DX009 (ip), vehicle: saline 101 % of control

C/C(Cl)=C/C(=O)O.[Ag]
inactive: [7] 93 % of control
